One assay deals with IRAK4 kinase (Homo sapiens (Human), UniProt Q9NWZ3). Put plainly: IRAK4 kinase activity inhibition assay (ADP-Glo). The format is biochemical. To be noted: 10 μM ATP, MBP substrate, 60 min at 25° C. Here is the method: IRAK4 kinase (purchased from Life Technologies, Cat. No.: PR5612U) was diluted to 2 folds of the final concentration (the final concentration is 0.76 ng/μL) with reaction buffer (40 mM Tris-HCl, pH 7.5; 20 mM MgCl2; 0.1 mg/mL BSA; 1 mM DTT), and added to a 384-well plate at 5 μL/well. The test drugs were 10-fold serial diluted from 10 μM to set six concentration points and added to the test wells of the 384-well plate at 2.5 μL/well. After incubation for 10 min at 25° C., 10 μM of ATP and […] of an enzyme reaction substrate, myelin basic protein MBP (purchased from SignalChem, Cat. No.: M42-51N) were added at 2.5 µL/well, and reacted at 25° C. for 60 minutes. After the reaction was completed, the kinase activity assay was performed using the ADP-Glo™ kinase assay kit (purchased from Promega, Cat. No.: V9102) according to the manufacture's instruction, i.e., 10 μL of ADP-Glo reaction reagent was first added and reacted at 25° C. for 40 minutes, 10 μL of the solution to be tested was taken and mixed with 10 μL of ADP-Glo detection reagent, and reacted at 25° C. for 30 minutes. The kinase activity was then detected, and the IC50 values of the test drugs were calculated.

The next assay deals with TMD-8 cells. The assay is described as follows: TMD-8 cell growth inhibition assay (CCK-8). The format is cell-based. The settings on record: Homo sapiens, TMD8, 96 hours. The protocol: The compounds of Examples 9, 98 and 105 of the invention were tested in TMD-8 cell growth inhibition assay. TMD-8 cells (available from Korea Hanmi Research Center) were cultured in RMPI-1640 medium (purchased from Gibco, Cat. No.: 22440) containing 10% fetal bovine serum (purchased from Gibco, Cat. No.: 10099-141). The TMD-8 cells in logarithmic growth phase were seeded in a 96-well plate at 20,000 cells/well/100 μL, and RMPI-1640 medium (100 μL) was added into blank control wells. The test samples were diluted with RMPI-1640 medium to 2 folds of the final concentration (10-fold dilutions starting from 10 μM, setting 6 drug concentrations, and testing in replicate wells at each concentration). The diluted test samples were added to test wells seeded with cells at 100 μL/well, and RMPI-1640 medium (100 μL) was separately added to the positive control wells and the blank control wells. The 96-well plate was placed in the incubator and reacted at 37° C., 5% CO2 for 96 hours. After the reaction was completed, the 96-well plate was taken from the incubator and to each well was added CCK-8 (100 μL) (purchased from DOJINDO, Cat. No.: CK04-11). Then the 96-well plate was put back to the incubator and incubated for another 2 hours. The light absorbance was measured at 450 nm, and the IC50 values were calculated therefrom.

Assay [1] has as its system TNF-α secretion in THP-1 cells. The assay is described as follows: LPS-induced TNF-α secretion assay in THP-1 cells (ELISA). The format is cell-based. To be noted: Homo sapiens; LPS-induced TNF-α secretion in THP-1 cells, 2 hours pre-incubation, 24 hours LPS. The protocol: The compounds of Examples 9, 98 and 105 of the invention were tested in LPS-induced TNF-α secretion assay in THP-1 cells. Human THP-1 cells (purchased from ATCC, Cat. No.: TIB-202) were cultured in RPMI-1640 medium (purchased from Gibco, Cat. No.: 22440) containing 10% fetal bovine serum (purchased from Gibco, Cat. No.: 10099-141) and 0.05 mM of 2-mercaptoethanol (purchased from Gibco, Cat. No.: 21985). The THP-1 cells in logarithmic growth phase were seeded in a 96-well plate at 2×10^5 cells/well/100 μL. The test samples were diluted with RMPI-1640 medium to 4 folds of the final concentration (5-fold dilutions starting from 10 μM, setting 6 drug concentrations, and testing in replicate wells at each concentration). The diluted test samples were added to the test wells seeded with cells at 50 μL/well, and RMPI-1640 medium (50 μL) was separately added to positive control and negative control wells. The 96-well plate was placed in the incubator at 37° C., 5% CO2 and pre-incubated for 2 hours. The 96-well plate was taken out, and 400 ng/mL of LPS (50 μL) (purchased from Sigma, Cat. No.: L6529-1MG) was added to each well of the test wells and the positive control wells, and RMPI-1640 medium (50 μL) was added to the negative control wells. After incubation in the incubator at 37° C., 5% CO2 for 24 hours, the cell culture supernatant was taken and determined for the content of TNF-α in the supernatant using a human TNF-α ELISA kit (purchased from DKW, Cat. No.: 12-1720-096).

What is called IC50 is the concentration that gives 50% inhibition. Low values mean greater potency, high ones weaker potency.

Structures are written as SMILES.

IRAK4 kinase, sequence (Q9NWZ3 whole entry): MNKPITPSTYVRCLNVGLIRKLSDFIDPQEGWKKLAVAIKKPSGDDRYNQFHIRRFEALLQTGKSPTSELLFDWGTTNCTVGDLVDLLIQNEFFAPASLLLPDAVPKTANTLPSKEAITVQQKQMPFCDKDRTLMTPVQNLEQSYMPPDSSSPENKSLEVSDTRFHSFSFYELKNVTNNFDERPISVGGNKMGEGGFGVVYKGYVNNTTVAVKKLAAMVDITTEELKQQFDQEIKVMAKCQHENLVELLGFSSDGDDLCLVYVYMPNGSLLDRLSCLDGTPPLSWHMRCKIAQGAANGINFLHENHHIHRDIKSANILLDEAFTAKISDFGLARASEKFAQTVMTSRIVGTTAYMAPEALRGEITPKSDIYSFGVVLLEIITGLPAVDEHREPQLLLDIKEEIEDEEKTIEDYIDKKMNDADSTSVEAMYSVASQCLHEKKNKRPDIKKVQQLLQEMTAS

On to `COCCCn1ccc2nc(Nc3cc(C)ns3)nc(N[C@H]3CC[C@H](N4CCCCC4)CC3)c21` [Compound 105, 5-(3-methoxylpropyl)-N^4-(trans-4-(piperidin-1-yl)cyclohexyl)-N^2-(3-methylisothiazol-5-yl)-5H-pyrrolo[3,2-d]pyrimidine-2,4-diamine], for which the IC50 against IRAK4 kinase is not above 100 nM; in the assay on TMD-8 cells, not above 500 nM; in assay [1], not above 500 nM.
